What was measured:
full-length HAQ STING = target: T1, full-length HAQ STING (Homo sapiens, UniProt Q86WV6, G230A/H232R/R293Q/R71H); experiment: 3H-cGAMP filtration binding assay (HAQ STING); conditions: for EC50: competition with tritiated cGAMP, HAQ STING membrane
T1 construct: AviTag (after GG linker) (C); HRV3C cleavage site (after GS linker) (C); HIS8 (C); made in house; host or cells: Trichoplusia ni (Hi-Five) insect cells infected with baculovirus (virus generated and amplified in Sf21 cells); used as a washed membrane preparation
T1 sequence (Q86WV6 with tags, fused parts or gaps R71H/G230A/H232R/R293Q): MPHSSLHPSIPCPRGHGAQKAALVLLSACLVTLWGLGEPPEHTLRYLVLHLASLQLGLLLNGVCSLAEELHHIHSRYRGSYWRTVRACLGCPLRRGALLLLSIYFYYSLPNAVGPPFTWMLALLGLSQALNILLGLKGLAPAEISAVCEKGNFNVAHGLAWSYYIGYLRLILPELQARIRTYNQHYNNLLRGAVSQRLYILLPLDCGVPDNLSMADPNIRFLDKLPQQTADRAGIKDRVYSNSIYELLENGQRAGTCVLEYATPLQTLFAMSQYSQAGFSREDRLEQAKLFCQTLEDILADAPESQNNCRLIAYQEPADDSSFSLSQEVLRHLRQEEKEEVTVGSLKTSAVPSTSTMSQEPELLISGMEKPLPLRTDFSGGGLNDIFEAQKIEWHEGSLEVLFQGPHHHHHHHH
Summary of the method: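 Hi-Five (T. ni) membranes overexpressing the STING variant (2.2 ug/ml working) preincubated with compound 60 min at RT in PBS, then [3H]cGAMP (8 nM working stock) added for 60 min at RT. Bound radioactivity captured on GF/B filters and counted by scintillation; EC50 from 4-parameter fit of control-normalized activity.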

full-length WT STING = target: T2, full-length WT STING (Homo sapiens, UniProt Q86WV6, H232R); experiment: 3H-cGAMP filtration binding assay (WT STING); conditions: for EC50: competition with tritiated cGAMP, WT STING membrane; for inhibition at 20 µM: at 20,000 nM compound
T2 construct: AviTag (after gg linker) (C); HRV3C cleavage site (after gs linker) (C); HIS8 (C); made in house; host or cells: Trichoplusia ni (Hi-Five) insect cells infected with baculovirus (virus generated and amplified in Sf21 cells); used as a washed membrane preparation
T2 sequence (Q86WV6 with tags, fused parts or gaps H232R): as the sequence (Q86WV6 with tags, fused parts or gaps R71H/G230A/H232R/R293Q) above, with H71R, A230G, Q293R counted along it
Summary of the method: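 EC50 values come from 4-parameter fits of remaining filter-bound tritium versus log concentration (10-point, 1:3 dilution). Insect-cell membranes carrying full-length WT STING were incubated 60 min at RT with compound and tritiated cGAMP (16 nM working stock) before filtration.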

[1] = test system: secretion of interferon-beta from THP1 cells; experiment: IFN-β secretion in THP1 cell culture (5 h); type: cell-based; conditions: Homo sapiens, THP-1, 5 h, compound at 30 μM, 30 uM cGAMP = 100%, read-out: % Effect at 30 μM relative to 2′3′-cGAMP
Summary of the method: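 IFN-β in supernatant measured by AlphaLISA after a 5 h, 37 °C incubation of THP1 cells with compound (10 concentrations, 30000 down to 1.5 nM, 0.3% DMSO) in low-serum RPMI. Values scaled between DMSO and 30 uM cGAMP controls; 4-parameter curve fit yields EC50.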

EC50 (full-length HAQ STING) [nM]	EC50 (full-length WT STING) [nM]	inhibition at 20 µM (full-length WT STING) [%]	inhibition at 20 µM (full-length HAQ STING; at 20,000 nM compound) [%]	SMILES	activation at 30 µM [1] [%]
–	–	34	44	COC(=O)[C@@H](C)CC(=O)c1cc2cc(OCCCOc3cc4cc(C(=O)C[C@H](C)C(=O)OC)sc4cc3OC)c(OC)cc2s1 [Example 49, dimethyl 4,4′-((propane-1,3-diylbis(oxy))bis(6-methoxybenzo[b]thiophene-5,2-diyl))(2S,2′S)-bis(2-methyl-4-oxobutanoate)]	17
1	1	–	–	COc1cc2sc(C(=O)C[C@H](C)C(=O)O)cc2c(F)c1OCCOc1c(OC)cc2sc(C(=O)C[C@H](C)C(=O)O)cc2c1F [Example 50, (2S,2′S)-4,4′-((ethane-1,2-diylbis(oxy))bis(4-fluoro-6-methoxybenzo[b]thiophene-5,2-diyl))bis(2-methyl-4-oxobutanoic acid)]	44
3	8	–	–	COc1cc2sc(C(=O)C[C@H](C)C(=O)O)cc2cc1OCCCOc1cc2sc(C(=O)C[C@H](C)C(=O)O)cc2cc1OC [Example 51]	43
2	4	–	–	COc1cc2sc(C(=O)C[C@H](C)C(=O)O)cc2cc1OCCCOc1cc2cc(C(=O)C[C@H](C)C(=O)O)sc2cc1OC [Example 52, (2S,2′S)-4,4′-((propane-1,3-diylbis(oxy))bis(6-methoxybenzo[b]thiophene-5,2-diyl))bis(2-methyl-4-oxobutanoic acid)]	53
146	713	–	–	COc1cc2cc(C(=O)C[C@H](C)C(=O)O)sc2cc1OCCOc1ccc2sc(C(=O)CCC(=O)O)cc2c1 [Example 53, (S)-4-(6-(2-((2-(3-carboxypropanoyl)benzo[b]thiophen-5-yl)oxy)ethoxy)-5-methoxybenzo[b]thiophen-2-yl)-2-methyl-4-oxobutanoic acid]	23
804	3080	–	–	COc1cc2sc(C(=O)C[C@H](C)C(=O)O)cc2cc1OCCOc1ccc2sc(C(=O)CCC(=O)O)cc2c1 [Example 54, (S)-4-(5-(2-((2-(3-carboxypropanoyl)benzo[b]thiophen-5-yl)oxy)ethoxy)-6-methoxybenzo[b]thiophen-2-yl)-2-methyl-4-oxobutanoic acid]	9
14	48	–	–	COc1cc2sc(C(=O)C[C@H](C)C(=O)O)cc2cc1OCCCOc1ccc2sc(C(=O)CCC(=O)O)cc2c1 [Example 55, (S)-4-(5-(3-((2-(3-carboxypropanoyl)benzo[b]thiophen-5-yl)oxy)propoxy)-6-methoxybenzo[b]thiophen-2-yl)-2-methyl-4-oxobutanoic acid]	53
1070	3130	–	–	COc1cc2sc(C(=O)C[C@H](C)C(=O)O)cc2cc1OCCOc1ccc2cc(C(=O)CCC(=O)O)sc2c1 [Example 56, (S)-4-(5-(2-((2-(3-carboxypropanoyl)benzo[b]thiophen-6-yl)oxy)ethoxy)-6-methoxybenzo[b]thiophen-2-yl)-2-methyl-4-oxobutanoic acid]	30
1	1	–	–	COc1cc2sc(C(=O)C[C@H](C)C(=O)O)cc2cc1OCCCOc1nc2cc(C(=O)C[C@H](C)C(=O)O)sc2cc1OC [Example 58, (S)-4-(5-(3-((2-((S)-3-carboxybutanoyl)-6-methoxybenzo[b]thiophen-5-yl)oxy)propoxy)-6-methoxythieno[3,2-b]pyridin-2-yl)-2-methyl-4-oxobutanoic acid]	46
1	2	–	–	COc1cc2sc(C(=O)C[C@H](C)C(=O)O)cc2nc1OCCCOc1c(OC)cc2sc(C(=O)CC(C)(C)C(=O)O)cc2c1F [Example 59, (S)-4-(5-(3-((2-(3-carboxybutanoyl)-6-methoxythieno[3,2-b]pyridin-5-yl)oxy)propoxy)-4-fluoro-6-methoxybenzo[b]thiophen-2-yl)-2,2-dimethyl-4-oxobutanoic acid]	18
19	67	–	–	COc1cc2sc(C(=O)C[C@H](C)C(=O)O)cc2cc1CCNc1cc2cc(C(=O)C[C@H](C)C(=O)O)sc2cc1OC [Example 60, (2S)-4-{5-[2-({2-[(3S)-3-carboxybutanoyl]-6-methoxy-1-benzothiophen-5-yl}amino)ethyl]-6-methoxy-1-benzothiophen-2-yl}-2-methyl-4-oxobutanoic acid]	106

Second part, the compound before the results:

SMILES	EC50 (full-length HAQ STING) [nM]	EC50 (full-length WT STING) [nM]	inhibition at 20 µM (full-length WT STING) [%]	inhibition at 20 µM (full-length HAQ STING; at 20,000 nM compound) [%]	activation at 30 µM [1] [%]
COc1cc2sc(C(=O)CCC(=O)O)cc2cc1OCCCOc1c(OC)cc2sc(C(=O)C[C@H](C)C(=O)O)cc2c1F [Example 39, (S)-4-(5-(3-((2-(3-carboxypropanoyl)-6-methoxybenzo [b]thiophen-5-yl)oxy)propoxy)-4-fluoro-6-methoxybenzo[b]thiophen-2-yl)-2-methyl-4-oxobutanoic acid]	1	2	–	–	75
COc1cc2cc(C(=O)C[C@H](C)C(=O)O)sc2cc1OCCCc1nc2c(o1)c(OC)cc1sc(C(=O)C[C@H](C)C(=O)O)cc12 [Example 40, (S)-4-(6-(3-(7-((S)-3-carboxybutanoyl)-4-methoxythieno[2′,3′:5,6]benzo[1,2-d]oxazol-2-yl)propoxy)-5-methoxybenzo [b]thiophen-2-yl)-2-methyl-4-oxobutanoic acid]	86	1360	–	–	27
COc1cc2sc(C(=O)C[C@H](C)C(=O)O)cc2cc1CCCOc1cc2cc(C(=O)C[C@H](C)C(=O)O)sc2cc1OC [Example 41, (2S)-4-{5-[3-({2-[(3S)-3-carboxybutanoyl]-6-methoxy-1-benzothiophen-5-yl}oxy)propyl]-6-methoxy-1-benzothiophen-2-yl}-2-methyl-4-oxobutanoic acid]	16	50	–	–	117
COc1cc2sc(C(=O)C[C@H](C)C(=O)O)cc2cc1CCOc1cc2cc(C(=O)C[C@H](C)C(=O)O)sc2cc1OC [Example 42, (S)-4-(5-(2-(2-((S)-3-carboxybutanoyl)-6-methoxybenzo[b]thiophen-5-yl)ethoxy)-6-methoxybenzo[b]thiophen-2-yl)-2-methyl-4-oxobutanoic acid]	6	12	–	–	67
COc1cc2sc(C(=O)C[C@H](C)C(=O)O)cc2cc1OCCCOc1ccc2cc(C(=O)CCC(=O)O)sc2c1 [Example 43, (S)-4-(5-(3-((2-(3-carboxypropanoyl)benzo[b]thiophen-6-yl)oxy)propoxy)-6-methoxybenzo [b]thiophen-2-yl)-2-methyl-4-oxobutanoic acid]	49	151	–	–	69
COc1cc2sc(C(=O)CCC(=O)O)cc2cc1CCCOc1cc2cc(C(=O)CCC(=O)O)sc2cc1OC [Example 44, 4-(5-(3-((2-(3-carboxypropanoyl)-6-methoxybenzo[b]thiophen-5-yl)oxy)propyl)-6-methoxybenzo[b]thiophen-2-yl)-4-oxobutanoic acid]	14	64	–	–	108
COc1cc2cc(C(=O)C[C@H](C)C(=O)O)sc2cc1OCCCOc1ccc2cc(C(=O)CCC(=O)O)sc2c1 [Example 45, (S)-4-(6-(3-((2-(3-carboxypropanoyl)benzo[b]thiophen-6-yl)oxy)propoxy)-5-methoxybenzo[b]thiophen-2-yl)-2-methyl-4-oxobutanoic acid]	4330	14800	–	–	8
COc1cc2cc(C(=O)C[C@H](C)C(=O)O)sc2cc1OCCCOc1ccc2sc(C(=O)CCC(=O)O)cc2c1 [Example 46, (S)-4-(6-(3-((2-(3-carboxypropanoyl)benzo[b]thiophen-5-yl)oxy)propoxy)-5-methoxybenzo[b]thiophen-2-yl)-2-methyl-4-oxobutanoic acid]	133	394	–	–	60
COc1cc2cc(C(=O)C[C@H](C)C(=O)O)sc2cc1OCCCOc1cc2sc(C(=O)C[C@H](C)C(=O)O)cc2cc1OC [Example 47, (2S,2′S)-4,4′-((propane-1,3-diylbis(oxy))bis(5-methoxybenzo[b]thiophene-6,2-diyl))bis(2-methyl-4-oxobutanoic acid)]	14	81	–	–	62
COC(=O)[C@@H](C)CC(=O)c1cc2cc(OCCCOc3cc4sc(C(=O)C[C@H](C)C(=O)OC)cc4cc3OC)c(OC)cc2s1 [Example 48, methyl (S)-4-(6-methoxy-5-(3-((5-methoxy-2-((S)-4-methoxy-3-methyl-4-oxobutanoyl)benzo[b]thiophen-6-yl)oxy)propoxy)benzo[b]thiophen-2-yl)-2-methyl-4-oxobutanoate]	12800	–	43	–	22

From patent US10793557B2, “Sting agonist compounds” (Merck Sharp & Dohme Corp., priority 2018, dated 2020)
